Laboratory results taken from ChEMBL document CHEMBL4665812, “Targeting Her2-insYVMA with Covalent Inhibitors-A Focused Compound Screening and Structure-Based Design Approach” (J Med Chem, 2020).
In brackets after ≈: the same amount, converted by molar mass.

Tests used:
[1] = Inhibition of HER2-A775_G776insYVMA mutant (unknown origin) expressed in mouse BaF3 cells assessed as reduction in HER2 induced cell viability after 96 hrs by CellTiter-Glo assay; assay type: cell-based; conditions: BaF3, 96 h
cells = assay type: cell-based; conditions: Homo sapiens, NCI-H1781, 96 h
Description: Inhibition of HER2-G776delinsVC mutant (unknown origin) expressed in human H1781 cells assessed as reduction in HER2 induced cell viability after 96 hrs by CellTiter-Glo assay

[2] = target: Receptor tyrosine-protein kinase erbB-2 (Homo sapiens, UniProt P04626); test: Inhibition of C-terminal His6-tagged HER2 (703 to 1029 residues) (unknown origin) expressed in Sf9 insect cells using TK as substrate preincubated for 30 mins followed by substrate addition and measured after 60 mins in presence of XL665-labeled streptavidin by HTRF assay
Receptor tyrosine-protein kinase erbB-2, sequence (P04626 whole entry, the tested form may be a part): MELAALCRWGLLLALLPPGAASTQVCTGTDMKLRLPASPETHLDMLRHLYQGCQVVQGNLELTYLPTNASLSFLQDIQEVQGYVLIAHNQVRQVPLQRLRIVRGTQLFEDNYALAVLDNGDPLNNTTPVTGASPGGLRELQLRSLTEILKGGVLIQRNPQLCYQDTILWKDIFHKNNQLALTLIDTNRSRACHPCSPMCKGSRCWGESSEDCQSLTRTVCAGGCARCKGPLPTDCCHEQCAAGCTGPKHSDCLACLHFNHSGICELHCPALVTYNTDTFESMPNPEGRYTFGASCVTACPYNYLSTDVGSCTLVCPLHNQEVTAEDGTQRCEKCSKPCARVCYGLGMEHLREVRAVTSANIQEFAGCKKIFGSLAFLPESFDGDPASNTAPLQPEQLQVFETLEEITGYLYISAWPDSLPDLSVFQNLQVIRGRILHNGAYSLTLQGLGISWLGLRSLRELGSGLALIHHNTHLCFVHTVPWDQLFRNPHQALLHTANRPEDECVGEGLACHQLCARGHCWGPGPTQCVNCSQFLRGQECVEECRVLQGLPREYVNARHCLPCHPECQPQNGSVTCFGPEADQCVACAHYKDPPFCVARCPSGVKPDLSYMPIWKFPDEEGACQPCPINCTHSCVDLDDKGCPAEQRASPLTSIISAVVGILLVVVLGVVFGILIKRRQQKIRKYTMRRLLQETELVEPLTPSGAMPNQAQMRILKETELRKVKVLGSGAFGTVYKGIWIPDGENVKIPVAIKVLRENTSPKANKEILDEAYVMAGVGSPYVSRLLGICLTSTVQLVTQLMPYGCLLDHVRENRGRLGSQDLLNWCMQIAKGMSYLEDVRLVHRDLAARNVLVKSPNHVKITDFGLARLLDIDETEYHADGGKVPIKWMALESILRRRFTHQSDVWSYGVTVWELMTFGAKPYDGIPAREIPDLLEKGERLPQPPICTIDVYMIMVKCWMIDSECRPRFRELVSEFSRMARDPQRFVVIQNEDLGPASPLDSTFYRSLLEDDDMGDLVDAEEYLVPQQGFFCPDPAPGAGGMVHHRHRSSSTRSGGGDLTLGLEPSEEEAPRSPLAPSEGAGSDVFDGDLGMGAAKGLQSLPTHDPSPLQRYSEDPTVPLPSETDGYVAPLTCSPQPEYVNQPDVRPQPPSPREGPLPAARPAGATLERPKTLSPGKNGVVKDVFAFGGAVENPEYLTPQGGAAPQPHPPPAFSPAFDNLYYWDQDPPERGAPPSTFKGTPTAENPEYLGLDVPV

[3] = Apparent permeability across apical side to basolateral side in human Caco-2 cells at 5 uM after 2 hrs by transwell assay; assay type: ADME, cell-based; conditions: read-out: permeability
[4] = Intrinsic clearance in mouse liver microsomes at 3 uM measured up to 60 mins by LC-MS analysis; assay type: ADME, Microsome; conditions: read-out: CLH
[5] = Intrinsic clearance in human liver microsomes at 3 uM measured up to 50 mins by LC-MS analysis; assay type: ADME, Microsome; conditions: read-out: CLH
[6] = Stability of compound in mouse plasma assessed as parent compound remaining at 5 uM measured for 1 hr by LC-MS analysis; assay type: ADME, cell-free; conditions: for remaining at 1 h, 5 µM: read-out: Stabilty
[7] = Stability of compound in human plasma assessed as parent compound remaining at 5 uM measured for 1 hr by LC-MS analysis; assay type: ADME, cell-free; conditions: read-out: Stabilty
[8] = Kinetic solubility of compound in HEPES buffer a pH 7.4 at 500 uM after 90 mins; assay type: physicochemical; conditions: read-out: Kinetic_solubility
[9] = Solubility of compound in aqueous buffer at pH 7.4 after 120 mins by turbidometric assay; assay type: physicochemical
[10] = Apparent permeability across basolateral side to apical side in human Caco-2 cells at 5 uM after 2 hrs by transwell assay; assay type: ADME, cell-based; conditions: read-out: permeability
[11] = Ratio of apparent permeability across basolateral to apical over apical to basolateral side in human Caco2 cells at 5 uM after 2 hrs by transwell assay; assay type: ADME, cell-based; conditions: Caco-2

SMILES	IC50 [1] [nM]	IC50 (cells) [nM]	IC50 [2] [nM]	other results
C=CC(=O)Nc1cccc(-c2c(-c3ccc(N4CCN(C)CC4)cc3)[nH]c3ncn(C)c(=O)c23)c1	3300	1230	146	–
COc1cc2ncnc(Nc3ccc(F)c(Cl)c3)c2cc1OCCCN1CCOCC1 [GEFITINIB]	2880	–	–	–
CS(=O)(=O)CCNCc1ccc(-c2ccc3ncnc(Nc4ccc(OCc5cccc(F)c5)c(Cl)c4)c3c2)o1 [LAPATINIB]	2760	3940	–	Papp A→B at 2 h, 5 µM [3]: 0.7 ×10⁻⁶ cm/s; microsomal CLint at 3 µM [4]: 73.7 µL/min/mg; microsomal CLint at 3 µM [5]: 16.7 µL/min/mg; remaining at 1 h, 5 µM [6]: 95.9%; remaining at 1 h, 5 µM [7]: 99.7%; solubility kinetic at 1.5 h, 500 µM [8]: 4.1 µM (≈ 2.38 µg/mL); solubility kinetic at 2 h [9]: 3 µM (≈ 1.74 µg/mL); Papp B→A at 2 h, 5 µM [10]: 0.2 ×10⁻⁶ cm/s
C=CC(=O)Nc1cccc(-c2c(-c3ccc(N4CCN(C)CC4)cc3)[nH]c3ncnc(Nc4ccc(OC(c5ccccc5)c5ccccc5)cc4)c23)c1	> 3000	2630	4.5	–
C=CC(=O)Nc1cc(Nc2nccc(-c3cn(C)c4ccccc34)n2)c(OC)cc1N(C)CCN(C)C [OSIMERTINIB]	1390	808	–	–
C=CC(=O)Nc1cccc(-c2c(-c3ccc(N4CCN(C)CC4)cc3)[nH]c3ncnc(Nc4ccc(OC(=O)C(c5ccccc5)N5Cc6ccccc6C5=O)cc4)c23)c1 (configuration not stated)	390	334	13	–
C=CC(=O)Nc1cc(-c2c[nH]c3ncnc(Nc4ccc(OCc5ccccn5)c(Cl)c4)c23)ccc1OC(C)COC (configuration not stated)	259	549	14	–
C=CC(=O)Nc1cccc(-c2c(-c3ccc(N4CCN(C)CC4)cc3)[nH]c3ncn(C(C)C)c(=O)c23)c1	3600	2050	592	–
C=CC(=O)Nc1cccc(-c2c(-c3ccc(N4CCN(C)CC4)cc3)[nH]c3ncn(CC)c(=O)c23)c1	2810	2340	84	–
C=CC(=O)Nc1cc(-c2c[nH]c3ncnc(Nc4ccc(CN5C(=O)c6ccccc6C5=O)cc4)c23)ccc1OCCN(C)C	621	1200	23	–
C=CC(=O)Nc1cccc(-c2c[nH]c3ncnc(Nc4ccc(OCc5cccc(F)c5)c(Cl)c4)c23)c1	135	305	14	–
C=CC(=O)Nc1cccc(-c2c(-c3ccc(N4CCN(C)CC4)cc3)[nH]c3ncnc(Nc4ccc(OCN5C(=O)c6ccccc6C5=O)cc4)c23)c1	411	264	12	–
C=CC(=O)Nc1cccc(-c2c[nH]c3ncnc(Nc4ccc(OCN5C(=O)c6ccccc6C5=O)cc4)c23)c1	562	383	4.5	–
C=CC(=O)N1CCC(Oc2cc3c(Nc4ccc(Cl)c(Cl)c4F)ncnc3cc2OC)CC1 [POZIOTINIB]	< 14	105	12	efflux ratio at 2 h, 5 µM [11]: 0.36; Papp A→B at 2 h, 5 µM [3]: 21.1 ×10⁻⁶ cm/s; microsomal CLint at 3 µM [4]: 35.4 µL/min/mg; microsomal CLint at 3 µM [5]: 22 µL/min/mg; Stabilty ([6]; 1 h, 5 µM): 120.4%; remaining at 1 h, 5 µM [7]: 86.9%; solubility kinetic at 1.5 h, 500 µM [8]: 39.3 µM (≈ 19.3 µg/mL); Papp B→A at 2 h, 5 µM [10]: 7.5 ×10⁻⁶ cm/s
C=CC(=O)Nc1cccc(-c2c(-c3ccc(N4CCN(C)CC4)cc3)[nH]c3ncnc(Nc4ccc(O)cc4)c23)c1	431	165	3.9	–
C=CC(=O)Nc1cc(-c2c[nH]c3ncnc(Nc4ccc(OCc5ccccn5)c(Cl)c4)c23)ccc1OCCO	84	201	1.9	–
C=CC(=O)Nc1cc(-c2c[nH]c3ncnc(Nc4ccc5[nH]c(Cc6ccccc6)nc5c4)c23)ccc1OCCO	> 3000	> 3000	188	–
C=CC(=O)Nc1cccc(-c2c(-c3ccc(N4CCN(C)CC4)cc3)[nH]c3ncnc(Nc4ccc(OCc5cccc(F)c5)c(Cl)c4)c23)c1	2220	> 30000	95	–

SMILES	IC50 [1] [nM]	IC50 (cells) [nM]	IC50 [2] [nM]	other results
C=CC(=O)Nc1cccc(-c2c[nH]c3ncnc(Nc4ccc(OC(c5ccccc5)c5ccccc5)cc4)c23)c1	497	6390	26	–
C=CC(=O)Nc1cc(-c2c[nH]c3ncnc(Nc4ccc(OCc5ccccn5)c(Cl)c4)c23)ccc1OCCCO	41	271	9.3	–
C=CC(=O)Nc1cccc(-c2c(-c3ccc(N4CCN(C)CC4)cc3)[nH]c3ncnc(OCC)c23)c1	327	417	14	–
C=CC(=O)Nc1cccc(-c2c(-c3ccc(N4CCN(C)CC4)cc3)[nH]c3ncn(CC(C)C)c(=O)c23)c1	2420	988	321	–
C=CC(=O)Nc1cccc(-c2c[nH]c3ncnc(Nc4ccc(Oc5ccccc5)cc4)c23)c1	> 3000	> 3000	13	–
C=CC(=O)Nc1cc(-c2c[nH]c3ncnc(Nc4ccc(CN5C(=O)c6ccccc6C5=O)cc4)c23)ccc1OCCO	675	1610	15	–
CN(C)C/C=C/C(=O)Nc1cc2c(Nc3ccc(F)c(Cl)c3)ncnc2cc1O[C@H]1CCOC1 [AFATINIB]	–	–	–	Papp A→B at 2 h, 5 µM [3]: 2.38 ×10⁻⁶ cm/s; microsomal CLint at 3 µM [4]: 9.4 µL/min/mg; microsomal CLint at 3 µM [5]: 1.4 µL/min/mg; remaining at 1 h, 5 µM [6]: 101%; remaining at 1 h, 5 µM [7]: 96.5%; Papp B→A at 2 h, 5 µM [10]: 55.4 ×10⁻⁶ cm/s
C=CC(=O)Nc1cccc(-c2c[nH]c3ncnc(Nc4ccc5c(ccn5Cc5ccccc5)c4)c23)c1	304	332	7.9	–
C=CC(=O)Nc1cccc(-c2c(-c3ccc(N4CCN(C)CC4)cc3)[nH]c3ncnc(OC)c23)c1	910	357	50	–
C=CC(=O)Nc1cccc(-c2c(-c3ccc(N4CCN(C)CC4)cc3)[nH]c3ncnc(Nc4ccc(CN5C(=O)c6ccccc6C5=O)cc4)c23)c1	638	490	55	–
C=CC(=O)Nc1cccc(-c2c(-c3ccc(N4CCN(C)CC4)cc3)[nH]c3ncnc(OC(C)C)c23)c1	1440	1180	21	–
C=CC(=O)Nc1cccc(-c2c[nH]c3ncnc(Nc4ccc5c(cnn5Cc5ccccc5)c4)c23)c1	53	126	12	–
C=CC(=O)Nc1cccc(-c2c(-c3ccc(N4CCN(C)CC4)cc3)[nH]c3ncnc(OCC(C)C)c23)c1	1120	2310	26	–
C=CC(=O)Nc1cccc(-c2c(-c3ccc(N4CCN(C)CC4)cc3)[nH]c3ncnc(Nc4ccc(OCc5ccccn5)c(Cl)c4)c23)c1	285	252	14	–
C=CC(=O)Nc1cccc(-c2c(-c3ccc(N4CCN(C)CC4)cc3)[nH]c3ncnc(Nc4ccc(NC(=O)C(c5ccccc5)N5Cc6ccccc6C5=O)cc4)c23)c1 (configuration not stated)	2680	699	43	–
CC(C)(O)CC(=O)NCCn1ccc2ncnc(Nc3ccc(Oc4cccc(C(F)(F)F)c4)c(Cl)c3)c21 [TAK-285]	3220	3980	–	–
C=CC(=O)Nc1cccc(-c2c[nH]c3ncnc(Nc4ccc(Cc5ccccc5)cc4)c23)c1	754	> 3000	29	–
C=CC(=O)Nc1cccc(-c2c[nH]c3ncnc(Nc4ccc5[nH]c(Cc6ccccc6)nc5c4)c23)c1	349	193	3.5	–
